Measured values: PMC10659432 (bioRxiv, 2023)

Columns and labels:
5-HT1FR [1] = molecular target: T1, 5-HT1FR (Homo sapiens, UniProt P30939); test: BRET Gi1 activation assay in transfected HEK293T cells, agonism; format: cell-based
5-HT1eR [2] = molecular target: T2, 5-HT1eR (Homo sapiens, UniProt P28566); test: as above; format: cell-based
Target sequence in this assay (P63096 2-354): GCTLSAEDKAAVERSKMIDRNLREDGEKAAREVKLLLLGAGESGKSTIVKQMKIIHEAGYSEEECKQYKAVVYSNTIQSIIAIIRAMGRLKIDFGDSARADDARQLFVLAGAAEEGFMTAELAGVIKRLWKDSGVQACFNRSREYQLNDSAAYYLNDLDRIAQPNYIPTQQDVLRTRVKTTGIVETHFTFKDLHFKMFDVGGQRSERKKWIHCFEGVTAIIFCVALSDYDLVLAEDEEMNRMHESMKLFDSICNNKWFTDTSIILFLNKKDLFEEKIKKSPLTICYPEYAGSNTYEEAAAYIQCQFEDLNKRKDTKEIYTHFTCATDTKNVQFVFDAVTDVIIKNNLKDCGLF
Target sequence in this assay (P62873 2-340, further chain): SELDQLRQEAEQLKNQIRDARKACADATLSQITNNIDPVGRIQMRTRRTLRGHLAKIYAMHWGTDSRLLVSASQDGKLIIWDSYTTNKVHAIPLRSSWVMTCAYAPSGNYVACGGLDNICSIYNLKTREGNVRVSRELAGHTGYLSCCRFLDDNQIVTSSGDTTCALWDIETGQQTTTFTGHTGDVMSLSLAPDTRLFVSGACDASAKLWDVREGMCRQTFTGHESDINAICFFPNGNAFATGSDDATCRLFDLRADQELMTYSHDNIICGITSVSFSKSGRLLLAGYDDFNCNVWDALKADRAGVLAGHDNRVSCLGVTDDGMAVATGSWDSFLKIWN
Target sequence in this assay (P59768 2-68, further chain): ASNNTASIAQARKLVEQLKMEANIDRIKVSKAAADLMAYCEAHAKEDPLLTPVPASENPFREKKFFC
Target sequence in this assay (P28566 whole entry): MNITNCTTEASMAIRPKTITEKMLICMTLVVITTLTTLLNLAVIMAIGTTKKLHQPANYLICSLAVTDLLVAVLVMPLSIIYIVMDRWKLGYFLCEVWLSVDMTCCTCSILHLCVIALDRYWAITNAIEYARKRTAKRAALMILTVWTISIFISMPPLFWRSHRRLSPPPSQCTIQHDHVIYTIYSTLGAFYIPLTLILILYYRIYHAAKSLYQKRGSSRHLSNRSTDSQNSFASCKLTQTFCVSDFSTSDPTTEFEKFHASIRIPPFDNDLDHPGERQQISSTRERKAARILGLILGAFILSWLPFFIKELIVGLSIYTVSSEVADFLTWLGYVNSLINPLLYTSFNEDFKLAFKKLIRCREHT

5-HT1eR [3] = molecular target: T2, 5-HT1eR; test: cryoEM structure at […] Å; format: cell-based
Target sequence in this assay (P28566 whole entry): as above

5-HT1FR [4] = molecular target: T1, 5-HT1FR; test: G protein BRET assay in transfected HEK293T cells, full agonism; format: cell-based
5-HT1eR [5] = molecular target: T2, 5-HT1eR; test: cryoEM structure at […] Å
Target sequence in this assay (P28566 whole entry): as above

5-HT1FR [6] = molecular target: T1, 5-HT1FR; test: G protein BRET assay in transfected HEK293T cells, agonism; format: cell-based

T1 sequence (P62873 2-340): as the sequence (P62873 2-340, further chain) above
T1 sequence (P30939 whole entry): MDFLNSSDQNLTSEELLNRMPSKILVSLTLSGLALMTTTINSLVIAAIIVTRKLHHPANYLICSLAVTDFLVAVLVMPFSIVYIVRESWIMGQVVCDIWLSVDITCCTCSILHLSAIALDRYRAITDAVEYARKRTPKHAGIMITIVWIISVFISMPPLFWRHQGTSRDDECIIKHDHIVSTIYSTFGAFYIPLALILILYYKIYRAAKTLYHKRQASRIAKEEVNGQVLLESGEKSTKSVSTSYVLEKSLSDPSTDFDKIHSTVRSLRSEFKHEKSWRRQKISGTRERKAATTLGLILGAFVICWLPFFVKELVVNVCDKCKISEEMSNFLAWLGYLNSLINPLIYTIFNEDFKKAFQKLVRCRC
T1 sequence (P63096 2-354, further chain): as the sequence (P63096 2-354) above
T1 sequence (P59768 2-68, further chain): as the sequence (P59768 2-68, further chain) above

Cc1cc(C(C)(C)C)c(O)c(C)c1CC1=NCCN1 [oxymetazoline]
EC50 (5-HT1FR [1]): 11.3 nM

CC[C@@H](CO)NC(=O)[C@@H]1C=C2c3cccc4[nH]cc(c34)C[C@H]2N(C)C1 [methylergonovine]
EC50 (5-HT1FR [1]): 5.2 nM
EC50 (5-HT1eR [2]): 17 nM

CN1CCC2=C(C1)c1ccccc1Cc1ccccc12 [setiptiline]
EC50 (5-HT1eR [3]): 171 nM
EC50 (5-HT1FR [4]): 64.6 nM

CN1CCN2c3ccccc3Cc3ccccc3C2C1 (stereo not shown) [mianserin]
EC50 (5-HT1FR [1]): 47.5 nM
EC50 (5-HT1eR [5]): 123 nM

CN1CCN2c3ncccc3Cc3ccccc3C2C1 (stereo not shown) [mirtazapine]
EC50 (5-HT1FR [6]): 236 nM

CN1CCC(=C2c3ccccc3Sc3ccccc32)CC1 [pimethixene]
EC50 (5-HT1FR [1]): 456 nM
EC50 (5-HT1eR [2]): 353 nM
